Results from US20090048293A1 (priority 2005, published 2009).
Several values for one entry are separate records, joined by “and”; a condition that tells them apart may be missing. Equal values may be shown once. Entries after “also recorded” stand apart in the source; their conditions may differ. Read-outs that look alike come from different tables or passages of the source. Where a SMILES comes first, the peptide text is derived from it. [ ]: non-standard residue; d: D form. The star is where a group is joined. Sta = CC(C)C[C@H](N)[C@@H](O)CC(=O)O; Isovaleryl = CC(C)CC(=O)*

Legend:
InhA = format: biochemical, Bacillus anthracis
Npr599 = format: biochemical, Bacillus anthracis
[1] = system: syndecan-1 ectodomain shedding from NMuMG cells; format: cell-based, murine
[2] = system: syndecan-1 shedding of NMuMG cells; format: cell-based, murine
TLR2 = format: cell-based

## [Mg+2] [Mg2+]
InhA
  Effect on InhA caseinolytic activity (in words): do not
  Remaining activity (%) InhA: 76 (6.1) % and 97 (1.7) %
Npr599
  Effect on Npr599 caseinolytic activity (in words): do not
  Remaining activity (%) Npr599: 83 (2.8) % and 97 (1.4) %

## CNC(=O)[C@H](Cc1c[nH]c2ccccc12)NC(=O)[C@@H](CC(=O)NO)CC(C)C [Galardin, Galardin (Ilomastat)]
InhA
  Effect on InhA caseinolytic activity (in words): less sensitive; also recorded: not InhA activity significantly
  Remaining protease activity (%) InhA: 70.5% and 104% and 103.3%
[1]
  Effect on Npr599-activated syndecan-1 shedding (in words): abrogate
Npr599
  Effect on Npr599 caseinolytic activity (in words): inhibits Npr599 activity strongly
[2]
  Effect on AnlO-induced syndecan-1 shedding (in words): reduce

## O=C1c2ccccc2-c2n[nH]c3cccc1c23 [JNK inhibitor, JNK inhibitor II]
[1]
  Effect on protease-enhanced syndecan-1 release (in words): strongly inhibits
  Effect on protease-enhanced syndecan-1 shedding (in words): some stimulatory effect

## Cc1ccc(C(=O)Nc2ccc(S(=O)(=O)O)c3cc(S(=O)(=O)O)cc(S(=O)(=O)O)c23)cc1NC(=O)c1cccc(NC(=O)Nc2cccc(C(=O)Nc3cc(C(=O)Nc4ccc(S(=O)(=O)O)c5cc(S(=O)(=O)O)cc(S(=O)(=O)O)c45)ccc3C)c2)c1 [suramin]
[1]
  Effect on syndecan-1 shedding induced by proteases (in words): effectively inhibits
[1]; 20 μM
  Effect on syndecan shedding (in words): stimulates
[2]
  Effect on AnlO-induced syndecan-1 shedding (in words): reduce
  Effect on LeTx-induced syndecan-1 shedding (in words): reduce

## [Fe+2] [Fe2+]
InhA
  Effect on InhA caseinolytic activity (in words): inhibit
Npr599
  Effect on Npr599 caseinolytic activity (in words): inhibit

## OCCS [b-mercaptoethanol, β-mercaptoethanol]
InhA
  Remaining protease activity (%) InhA: 85.8% and 105.8% and 113.4%
InhA; 1 mM
  Effect on InhA caseinolytic activity (in words): no substantial inhibiting activity
Npr599
  Remaining protease activity (%) Npr599: 85.4% and 133.4% and 120.7%
Npr599; 1 mM
  Effect on Npr599 caseinolytic activity (in words): no substantial inhibiting activity

## CCCCCCCCCCCCOS(=O)(=O)[O-].[Na+] [SDS]
Npr599; 3.5 μM
  Activation of Npr599: approximately 2.4 fold

## [Ni+2] [Ni2+]
InhA
  Remaining activity (%) InhA: 45 (3.4) % and 69 (1.3) %
Npr599
  Remaining activity (%) Npr599: 46 (1.4) % and 77 (1.4) %

## O[C@@H](CS)[C@@H](O)CS [DTT]
InhA
  Effect on InhA caseinolytic activity (in words): inhibits
Npr599
  Effect on Npr599 caseinolytic activity (in words): inhibits

## Cl.N[C@@H](CS)C(=O)O [L-Cysteine.HCl]
InhA; 1 mM
  Effect on InhA caseinolytic activity (in words): no substantial inhibiting activity
Npr599; 1 mM
  Effect on Npr599 caseinolytic activity (in words): no substantial inhibiting activity

## [Ca+2] [Ca2+]
InhA
  Effect on InhA caseinolytic activity (in words): do not
  Remaining activity (%) InhA: 91 (5.2) % and 94 (3.5) %
Npr599
  Effect on Npr599 caseinolytic activity (in words): do not
  Remaining activity (%) Npr599: 86 (1.5) % and 97 (1.4) %

## CC(=O)N[C@@H](CC(C)C)C(=O)N[C@@H](CC(C)C)C(=O)N[C@H](C=O)CCCNC(=N)N [Leupeptin, leupeptin]
InhA
  Remaining protease activity (%) InhA: 75.1% and 105.6% and 111.4%
Npr599
  Remaining protease activity (%) Npr599: 95.4% and 106.2%

## O=S(=O)(F)Cc1ccccc1 [PMSF, phenylmethanesulfonyl fluoride]
InhA
  Remaining protease activity (%) InhA: 111.1% and 109.8% and 94.7%
Npr599
  Remaining protease activity (%) Npr599: 88.2% and 100.9% and 87.2%

## CC(C)C[C@H](NP(=O)(O)O[C@@H]1O[C@@H](C)[C@H](O)[C@@H](O)[C@H]1O)C(=O)N[C@@H](Cc1c[nH]c2ccccc12)C(=O)O [Phosphoramidon, phosphoramidon]
InhA
  Effect on InhA caseinolytic activity (in words): less sensitive
  Remaining protease activity (%) InhA: 45.3% and 80.3% and 87.1%
[1]
  Effect on Npr599-activated syndecan-1 shedding (in words): abrogate

## O=C(O)CN(CCN(CC(=O)O)CC(=O)O)CC(=O)O [EDTA, ethylenediaminetetraacetic acid]
InhA
  Effect on InhA caseinolytic activity (in words): rapidly inhibited
  Remaining protease activity (%) InhA: 28.2% and 28.7% and 33.1%
Npr599
  Effect on Npr599 caseinolytic activity (in words): rapidly inhibited
  Remaining protease activity (%) Npr599: 6.5% and 9.5% and 10.5%

## COc1cccc(-c2cc(=O)c3ccccc3o2)c1N [PD98059]
[1]
  Effect on protease-enhanced syndecan-1 release (in words): strongly inhibits
  Effect on protease-enhanced syndecan-1 shedding (in words): some stimulatory effect

## [Cu+2] [Cu2+]
InhA
  Effect on InhA caseinolytic activity (in words): inhibit
  Remaining activity (%) InhA: 0 (0.0) %
Npr599
  Effect on Npr599 caseinolytic activity (in words): inhibit
  Remaining activity (%) Npr599: 1 (1.0) % and 0 (0.0) %

## [Mn+2] [Mn2+]
InhA
  Effect on InhA caseinolytic activity (in words): do not
  Remaining activity (%) InhA: 103 (2.5) % and 91 (5.1) %
Npr599
  Effect on Npr599 caseinolytic activity (in words): do not
  Remaining activity (%) Npr599: 79 (0.2) % and 96 (4.3) %

## c1cnc2c(c1)ccc1cccnc12 [1,10-phenanthroline, 1, 10-phenanthroline]
InhA
  Effect on InhA caseinolytic activity (in words): rapidly inhibited
  Remaining protease activity (%) InhA: 0%
InhA; 1 mM
  Effect on InhA caseinolytic activity (in words): completely abolishes
TLR2
  Effect on TLR2 signaling stimulated by B. anthracis culture supernatant (in words): abrogated
[1]
  Effect on Npr599-activated syndecan-1 shedding (in words): abrogate
Npr599
  Effect on Npr599 caseinolytic activity (in words): rapidly inhibited
Npr599; 1 mM
  Effect on Npr599 caseinolytic activity (in words): completely abolishes
[2]
  Effect on AnlO-induced syndecan-1 shedding (in words): reduce
  Effect on LeTx-induced syndecan-1 shedding (in words): reduce

## [Zn+2] [Zn2+]
InhA
  Effect on InhA caseinolytic activity (in words): inhibit
Npr599
  Effect on Npr599 caseinolytic activity (in words): inhibit

## CC(C)CC(=O)N[C@H](C(=O)N[C@H](C(=O)N[C@@H](CC(C)C)[C@@H](O)CC(=O)N[C@@H](C)C(=O)N[C@@H](CC(C)C)[C@@H](O)CC(=O)O)C(C)C)C(C)C [Pepstatin A, pepstatin A] (Isovaleryl-VV[Sta]A[Sta]-OH)
Npr599
  Remaining protease activity (%) Npr599: 67.6% and 75.3% and 77.9%

## CC(C)C[C@H](NC(=O)[C@H]1O[C@@H]1C(=O)O)C(=O)NCCCCN=C(N)N [E-64]
InhA
  Remaining protease activity (%) InhA: 59.1% and 78.4% and 83.5%
Npr599
  Remaining protease activity (%) Npr599: 74.1% and 76.1% and 79.5%
